Type in all cases: cell-based
Assay [1] concerns basophils in whole human peripheral blood. Description: Basophil IgE activation: histamine release assay. Particulars: anti-IgE activation. How it is done: The basophil activation assay was carried out using whole human peripheral blood from donors allergic to dust mites with the majority of the red blood cells removed by dextran sedimentation. Human peripheral blood was mixed 1:1 with 3% dextran T500 and RBCs were allowed to settle for 20-25 min. The upper fraction was diluted with 3 volumes of D-PBS and cells were spun down for 10 min at 1500 rpm, RT. Supernatant was aspirated and cells were washed in an equal volume MT-buffer. Finally, cells were resuspended in MT-buffer containing 0.5% DMSO in the original blood volume. 80 uL cells were mixed with 20 uL compound in the presence of 0.5% DMSO, in triplicate, in a V-bottom 96-well tissue culture plate. A dose range of 8 compound concentrations was tested resulting in a 10-point dose response curve including maximum (stimulated) and minimum (unstimulated) response. […] The cells were stimulated for 30 minutes at 37° C., 5% CO2. The plate was spun for 10 min at 1500 rpm at room temperature and 80 uL the supernatant was harvested for histamine content analysis using the histamine ELISA kit supplied by Immunotech. The ELISA was performed according to supplier's instructions.

In assay [2] the test system is bone marrow derived mast cells (BMMC). Description: BMMC high cell density IgE activation: degranulation (hexosiminidase, histamine), leukotriene (LTC4) and cytokine (TNFalpha, IL-6) assays. Particulars: Mus musculus, anti-IgE activation, hexosaminidase release, read-out: BMMC anti-IgE hexos IC50. How it is done: After sensitizing, cells are counted, pelleted (1000 rpm, 5-10 minutes), and resuspended at 1-3×10^6 cells/ml in MT buffer. Add 100 ul of cell suspension to each well and 100 ul of compound dilutions. The final vehicle concentration is 0.5% DMSO. Incubate at 37° C. (5% CO2) for 1 hour. After 1 hour of compound treatment, stimulate cells with 6× stimulus (60 ng/ml DNP-BSA). Mix wells with the cells and allow plates to incubate at 37° C. (5% CO2) for one hour. After 1 hour incubation, pellet cells (10 minutes, 1000 RPM) and collect 200 ul per well of the supernatant, being careful not to disturb pellet, and transfer to a clean tube or 96-well plate. Place the supernatant plate on ice. During the 4-5 hour step (see next) perform the hexosiminidase assay. Resuspend cell pellet in 240 ul WEI-conditioned media containing 0.5% DMSO and corresponding concentration of compound. Incubate BMMC cells for 4-5 hours at 37° C. (5% CO2). After incubation, pellet cells (1000 RPM, 10 minutes) and collect 225 ul per well and place in −80° C. until ready to perform ELISAS. ELISAS are performed on appropriately diluted samples (determined empirically for each donor cell population so that the sample measurement falls within the standard curve) following the supplier's instructions.
Add 50 uL of BMMC cell supernatant (see above) to the hexoseaminidase substrate, place at 37° C. for 30 minutes and read the plate at 5, 10, 15, and 30 minutes on a spectrophotometer.

Assay [3] relates to basophils in whole human peripheral blood. Description: Basophil ionomycin activation: histamine release assay. How it is done: Assays for ionomycin-induced basophil cell degranulation were carried out as described for the Basophil IgE or Dustmite Activation Assay (Section 6.4.6, supra), with the exception that following incubation with compound, cells were stimulated with 20 μl of 2 μM ionomycin.

In assay [4] the test system is ionophore-induced degranulation of mast and/or basophil cells. The assay is described as follows: Ionophore (ionomycin or A23187)-induced degranulation counter screen. Particulars: high density BMMC, ionomycin activation, hexosaminidase release, read-out: BMMC Ionomycin Hexos. IC50. An excerpt: In addition to the FcεRI or FcγRI degranulation pathways discussed above, degranulation of mast and/or basophil cells can be induced by other agents. For example, ionomycin, a calcium ionophore that bypasses the early FcεRI or FcγRI signal transduction machinery of the cell, directly induces a calcium flux that triggers degranulation. Referring again to FIG. 2, activated PLCγ initiates pathways that lead to, among other things, calcium ion mobilization and subsequent degranulation. As illustrated, this Ca^2+ mobilization is triggered late in the FcεRI signal transduction pathway. […] Other ionophores that induce degranulation in this manner include A23187. The ability of granulation-inducing ionophores such as ionomycin to bypass the early stages of the FcεRI and/or FcγRI signaling cascades may be used as a counter screen to identify active compounds of the invention that specifically exert their degranulation-inhibitory activity by blocking or inhibiting the early FcεRI or FcγRI signaling cascades, as discussed above.
Assays suitable for determining the IC50 of ionophore-induced degranulation include any of the previously-described degranulation assays, with the modification that the cells are stimulated or activated with a degranulation-inducing calcium ionophore such as ionomycin or A23187 (A.G. Scientific, San Diego, Calif.) instead of anti-IgE antibodies or an IgE-specific allergen. Specific assays for assessing the ability of a particular 2,4-pyrimidinediamine compound of the invention to inhibit ionophore-induced degranulation are provided in the Examples section.

For assay [5], the system named is cultured human mast cells (CHMC). Description: CHMC low cell density ionomycin activation: tryptase assay. Particulars: Homo sapiens, Mast cell, Low Density CHMC, ionomycin activation.
Assay [6] has the same test system. Description: CHMC low cell density IgE activation: tryptase and LTC4 assays. Particulars: Homo sapiens, Mast cell, Low Density CHMC, anti-IgE activation. In a few lines:
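Cultured human mast cells at low density (1000-1500 per well) rested 1 h at 37° C, then stimulated with anti-IgE for 30 min at 37° C. Supernatant tryptase measured with fluorogenic substrate (30 min, room temperature); LTC4 quantified by ELISA on diluted supernatant.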

Setting [7] is: tryptase readout, read-out: CHMC Ionomycin Tryptase.
The mark [8] stands for this setting: tryptase readout, read-out: CHMC anti-IgE Tryptase.
Setting [9] is: hexosaminidase readout, read-out: CHMC Ionomycin Hexos.
The mark [10] stands for this setting: hexosaminidase readout, read-out: CHMC anti-IgE Hexos.

Results on 16 molecules are retold here after patent publication US10828301B2, “2,4-pyrimidinediamine compounds and their uses” (Rigel Pharmaceuticals, Inc, priority 2002, dated 2020).

Each structure is given as a SMILES string. Structures can show the parent of a compound that is named as a salt. Where two headings read alike, the source gives them in different places. A value given as a limit tells only on which side of the number the result lay.

Take `Fc1cnc(Nc2ccc(Cl)cc2)nc1Nc1ccc(Cl)cc1` [Compound R926206, N2,N4-Bis(4-chlorophenyl)-5-fluoro-2,4-pyrimidinediamine]: the IC50 in assay [1] (Homo sapiens) was over 10 µM; in assay [2], 6.6 µM; in assay [3] (Homo sapiens) it was over 10 µM; in assay [4] (Mus musculus), 8.6 µM.

As to `O=C(c1cc2cc(Nc3ncc(F)c(Nc4cccc(O)c4)n3)ccc2o1)N1CCNCC1` [Compound R926502, 5-Fluoro-N4-(3-hydroxyphenyl)-N2-[2-(N-piperazino)carbonylbenzofuran-5-yl]-2,4-pyrimidinediamine Hydrogen Chloride Salt], the IC50 in assay [3] is over 10 µM.

Take `Fc1cnc(Nc2ccc3c(c2)OC(F)(F)C(F)(F)O3)nc1Nc1ccc2c(c1)OC(F)(F)C(F)(F)O2` [Compound R926037, N2,N4-Bis(3,4-tetrafluoroethylendioxyphenyl)-5-fluoro-2,4-pyrimidinediamine]: the IC50 in assay [1], in assay [3] and in assay [4] was over 10 µM each time.

As to `Fc1cc(Nc2ncc(F)c(Nc3ccc(C(F)(F)F)c(F)c3)n2)ccc1C(F)(F)F` [Compound R926018, N2,N4-Bis(3-fluoro-4-trifluoromethylphenyl)-5-fluoro-2,4-pyrimidinediamine], the IC50 in assay [1] (Homo sapiens) is over 10 µM; in assay [2], 8.5 µM; in assay [3] (Homo sapiens), 10 µM; in assay [4] (Mus musculus), over 10 µM.

As to `CCOc1ccc(Nc2nc(Nc3ccc4c(c3)OCCO4)ncc2F)cc1` [Compound R926213, N4-(4-Ethoxyphenyl)-N2-(3,4-ethylenedioxyphenyl)-5-fluoro-2,4-pyrimidinediamine], the IC50 in assay [1] (Homo sapiens) was 1.75 µM; in assay [5] (setting [7]) it was 5.5 µM; in assay [6] (setting [8]) it was 1.64 µM; in assay [3] (Homo sapiens), over 10 µM.

`O=C(c1cc2cc(Nc3ncc(F)c(Nc4ccc5c(c4)OCCO5)n3)ccc2o1)N1CCNCC1` [Compound R926501, N4-(3,4-Ethylenedioxyphenyl)-5-fluoro-N2-[2-(N-piperazino)carbonylbenzofuran-5-yl]-2,4-pyrimidinediamine Hydrogen Chloride Salt] had an IC50 in assay [3] of over 10 µM.

For the molecule `COc1ccc(Nc2ncc(F)c(Nc3ccc4c(c3)OCCO4)n2)cc1OC` [Compound R926212, N2-(3,4-Dimethoxyphenyl)-N4-(3,4-ethylenedioxyphenyl)-5-fluoro-2,4-pyrimidinediamine], the IC50 in assay [1] (Homo sapiens) is 0.5 µM; in assay [2], 0.5 µM; in assay [5] (setting [7]), over 10 µM; in assay [6] (LTC4 readout, read-out: CHMC anti-IgE LTC4) it was 0.45 µM; in assay [6] (setting [8]) it was 0.654 µM; in assay [3] (Homo sapiens) it was over 10 µM. For the same molecule, in assay [4] (Mus musculus), the IC50 came to 5 µM.

Take `Fc1cnc(Nc2ccc(Cl)c(C(F)(F)F)c2)nc1Nc1ccc(Cl)c(C(F)(F)F)c1` [Compound R926039, N2,N4-Bis(4-chloro-3-trifluoromethylphenyl)-5-fluoro-2,4-pyrimidinediamine]: the IC50 in assay [1] (Homo sapiens), in assay [2], in assay [3] (Homo sapiens) and in assay [4] (Mus musculus) was over 10 µM each time.

Consider `Fc1cnc(Nc2cccc(OC(F)(F)F)c2)nc1Nc1cccc(OC(F)(F)F)c1` [Compound R926038, N2,N4-Bis(3-trifluoromethoxyphenyl)-5-fluoro-2,4-pyrimidinediamine], for which the IC50 in assay [1] (Homo sapiens), in assay [2], in assay [3] (Homo sapiens) and in assay [4] (Mus musculus) was over 10 µM each time.

Regarding `CCOc1ccc(Nc2ncc(F)c(Nc3ccc4c(c3)OCCO4)n2)cc1` [Compound R926211, N2-(4-Ethoxyphenyl)-N4-(3,4-ethylenedioxyphenyl)-5-fluoro-2,4-pyrimidinediamine], the IC50 is 1.55 µM in assay [1] (Homo sapiens); 3.9 µM in assay [2]; over 10 µM in assay [5] (setting [9]); 9.8 µM in assay [5] (setting [7]); 2.7 µM in assay [6] (setting [10]); 1.3 µM in assay [6] (setting [8]). The IC50 in assay [3] (Homo sapiens) and in assay [4] (Mus musculus) was over 10 µM throughout.

In the case of `Fc1cnc(Nc2ccc(C(F)(F)F)cc2)nc1Nc1ccc(C(F)(F)F)cc1` [Compound R926016, N2,N4-Bis(4-trifluoromethylphenyl)-5-fluoro-2,4-pyrimidinediamine], the IC50 in assay [1] (Homo sapiens), in assay [2], in assay [3] (Homo sapiens) and in assay [4] (Mus musculus) was over 10 µM each time.

For the molecule `CC(C)(C)c1ccc(Nc2ncc(F)c(Nc3ccc4c(c3)OCCO4)n2)cc1` [Compound R926219, N2-(4-tert-Butylphenyl)-N4-(3,4-ethylenedioxyphenyl)-5-fluoro-2,4-pyrimidinediamine], the IC50 came out at 2.5 µM in assay [2], 6.7 µM in assay [5] (setting [9]), 1.1 µM in assay [6] (setting [10]) and 3.2 µM in assay [4] (Mus musculus).

`COc1ccc(Nc2nc(Nc3cccc(O)c3)ncc2F)cc1OC` [Compound R926147, N4-(3,4-Dimethoxyphenyl)-5-fluoro-N2-(3-hydroxyphenyl)-2,4-pyrimidinediamine]: the IC50 in assay [2] was 2 µM; in assay [5] (setting [9]) it was over 10 µM; in assay [6] (setting [10]) it was 1.9 µM; in assay [4] (Mus musculus) it was 7.1 µM.

Consider `CCOc1ccc(Nc2cc(C(=O)OC)nc(Nc3ccc(OCC)cc3)n2)cc1` [Compound R926058, N2,N4-Bis(4-ethoxyphenyl)-6-methoxycarbonyl-2,4-pyrimidinediamine], for which the IC50 in assay [1] (Homo sapiens), in assay [2], in assay [3] (Homo sapiens) and in assay [4] (Mus musculus) was over 10 µM throughout.

Regarding `CN(C)c1ccc(Nc2ncc(F)c(Nc3ccc(N(C)C)cc3)n2)cc1` [Compound R926086, N2,N4-Bis[4-(N,N-dimethylamino)phenyl]-5-fluoro-2,4-pyrimidinediamine], the IC50 in assay [1] (Homo sapiens) was 2.5 µM; in assay [2] it was 2.8 µM; in assay [3] (Homo sapiens), over 10 µM; in assay [4] (Mus musculus), 7.3 µM.

In the case of `Fc1cnc(Nc2cccc(Cl)c2)nc1Nc1cccc(Cl)c1` [Compound R926209, N2,N4-Bis(3-chlorophenyl)-5-fluoro-2,4-pyrimidinediamine], the IC50 was over 10 µM in assay [1] (Homo sapiens), 10 µM in assay [2], over 10 µM in assay [3] (Homo sapiens) and 9.1 µM in assay [4] (Mus musculus).
